Measurements from patent US8455497B2, “Inhibitors of aspartyl protease” (Vertex Pharmaceuticals Incorporated, priority 1999, dated 2013).
Where two headings read alike, the source gives them in different places.

Key:
[1] = test system: HIV-1 (strain IIIB); assay: Antiviral activity assay in MT4 cells (propidium iodide based); format: cell-based
In short: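 MT4 cells infected with HIV-1 IIIB (MOI 100×TCID50, 1 hr, 37°C), diluted 6-fold into wells with serially diluted compound, incubated 5 days. Cells lysed with Nonidet-40; DNA content per well estimated by propidium iodide staining as the viability read-out, with mock-infected controls.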

[2] = test system: EP13 multi protease inhibitor resistant virus; assay: Anti-viral activity against resistant virus EP13 in MT4 cells; format: cell-based, HIV-1; conditions: Human immunodeficiency virus 1, MT4, read-out: EP13 mutant IC50, EP13 multi protease inhibitor resistant virus, MT4 cells
In short: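 MT4 cells infected for 1 h at 37 °C, MOI 100×TCID50, then diluted 6-fold onto pre-diluted compound and cultured 5 days (5% CO2). Viable-cell DNA content estimated by propidium iodide. EP13 carries protease mutations M46I, L63P, A71V, V82F/L, I84V, no RT mutations.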

[3] = test system: D545701-14 multi protease inhibitor resistant virus; assay: Anti-viral activity against resistant virus D545701-14 in MT4 cells; format: cell-based, HIV-1; conditions: Human immunodeficiency virus 1, MT4, read-out: D545701-14 mutant - IC50, D545701-14 multi protease inhibitor resistant virus, MT4 cells
[4] = Human immunodeficiency virus 1, IIIB, wild type HIV-1 virus, MT4 cells, read-out: Wildtype virus - IC50

Compound: CC(C)CN(C[C@@H](O)[C@H](Cc1ccc(OS(=O)(=O)c2ccc3c(c2)OCO3)cc1)NC(=O)O[C@H]1CO[C@H]2OCC[C@H]21)S(=O)(=O)c1ccc2c(c1)OCO2 [Compound 349, 4-{(2S,3R)-2-({[(3R,3aS,6aR)-hexahydrofuro[2,3-b]furan-3-yloxy]carbonyl}amino)-4-[(1,3-benzodioxol-5-ylsulfonyl)(isobutyl)amino]-3-hydroxybutyl}phenyl 1,3-benzodioxole-5-sulfonate]
- IC50 [1, 4]: 1 to 10 nM
- IC50 [2]: 1 to 10 nM
- IC50 [3]: 1 to 10 nM

Compound: CC(C)CN(C[C@@H](O)[C@H](Cc1ccc(OCCCNC(=O)c2ccoc2)cc1)NC(=O)O[C@H]1CO[C@H]2OCC[C@H]21)S(=O)(=O)c1ccc2c(c1)OCO2 [Compound 261, (3R,3aS,6aR)-hexahydrofuro[2,3-b]furan-3-yl (1S,2R)-3-[(1,3-benzodioxol-5-ylsulfonyl)(isobutyl)amino]-1-{4-[3-(3-furoylamino)propoxy]benzyl}-2-hydroxypropylcarbamate]
- IC50 [1, 4]: 1 to 10 nM
- IC50 [2]: 1 to 10 nM
- IC50 [3]: 1 to 10 nM

Compound: CC(C)CN(C[C@@H](O)[C@H](Cc1ccc(OCCCOC(N)=O)cc1)NC(=O)O[C@H]1CO[C@H]2OCC[C@H]21)S(=O)(=O)c1ccc2c(c1)OCO2 [Compound 321, (3R,3aS,6aR)-Hexahydrofuro[2,3-b]furan-3-yl (1S,2R)-1-(4-{3-[(aminocarbonyl)oxy]propoxy}benzyl)-3-[(1,3-benzodioxol-5-ylsulfonyl)(isobutyl)amino]-2-hydroxypropylcarbamate]
- IC50 [1, 4]: 1 to 10 nM
- IC50 [2]: 1 to 10 nM
- IC50 [3]: 1 to 10 nM

Compound: CC(C)CN(C[C@@H](O)[C@H](Cc1ccc(OCc2ccc(C#N)cc2)cc1)NC(=O)O[C@H]1CO[C@H]2OCC[C@H]21)S(=O)(=O)c1ccc2c(c1)OCO2 [Compound 381, (3R,3aS,6aR)-hexahydrofuro[2,3-b]furan-3-yl (1S,2R)-3-[(1,3-benzodioxol-5-ylsulfonyl)(isobutyl)amino]-1-{4-[(4-cyanobenzyl)oxy]benzyl}-2-hydroxypropylcarbamate]
- IC50 [1, 4]: 1 to 10 nM
- IC50 [2]: 1 to 10 nM
- IC50 [3]: 1 to 10 nM

Compound: CC(C)CN(C[C@@H](O)[C@H](Cc1ccc(OCc2cccnc2)cc1)NC(=O)O[C@H]1CO[C@H]2OCC[C@H]21)S(=O)(=O)c1ccc2c(c1)OCO2 [Compound 52, Bis-THF Methylenedioxybenzenesulfonamide 3-picolyl Tethered Product]
- IC50 [1, 4]: 10 to 100 nM
- IC50 ([1]; Human immunodeficiency virus 1, MT4, 120 h, MT-4 cells, HIV-1 strain IIIB, 5 days, read-out: IC50 (Antiviral Activity of Compounds of the Invention)): 1 to 10 nM
- IC50 [2]: 1 to 10 nM
- IC50 [3]: 1 to 10 nM

Compound: CC(C)CN(C[C@@H](O)[C@H](Cc1ccc(OCc2cc(F)cc(F)c2)cc1)NC(=O)O[C@H]1CO[C@H]2OCC[C@H]21)S(=O)(=O)c1ccc2c(c1)OCO2 [Compound 380, (3R,3aS,6aR)-hexahydrofuro[2,3-b]furan-3-yl (1S,2R)-3-[(1,3-benzodioxol-5-ylsulfonyl)(isobutyl)amino]-1-{4-[(3,5-difluorobenzyl)oxy]benzyl}-2-hydroxypropylcarbamate]
- IC50 [1, 4]: 1 to 10 nM
- IC50 [2]: 1 to 10 nM
- IC50 [3]: 10 to 100 nM

Compound: CC(C)CN(C[C@@H](O)[C@@H](N)Cc1ccc(OCc2ccccc2)cc1)S(=O)(=O)c1ccc2c(c1)OCO2 [Compound 308, N-{(2R,3S)-3-Amino-4-[4-(benzyloxy)phenyl]-2-hydroxybutyl}-N-isobutyl-1,3-benzodioxole-5-sulfonamide]
- IC50 [1, 4]: 10 to 100 nM
- IC50 [2]: 1 to 10 nM
- IC50 [3]: 1 to 10 nM

Compound: CC(C)CN(C[C@@H](O)[C@H](Cc1ccc(OCCCNc2ccc(C(F)(F)F)cn2)cc1)NC(=O)O[C@H]1CO[C@H]2OCC[C@H]21)S(=O)(=O)c1ccc2c(c1)OCO2 [Compound 272, (3R,3aS,6aR)-hexahydrofuro[2,3-b]furan-3-yl (1S,2R)-3-[(1,3-benzodioxol-5-ylsulfonyl)(isobutyl)amino]-2-hydroxy-1-[4-(3-{[5-(trifluoromethyl)-2-pyridinyl]amino}propoxy)benzyl]propylcarbamate]
- IC50 [1, 4]: 1 to 10 nM
- IC50 [2]: 1 to 10 nM
- IC50 [3]: 1 to 10 nM
